Measurements reported in publication PMC5300040 (Environmental Science & Technology, 2016).
Like-named read-outs stand apart in the source and are kept apart here.

Legend:
recombinant rat CYP2B1 = settings: cited from earlier work
dog CYP2B11 = settings: cited from earlier work
[1] = system: liver microsomes prepared from male Sprague–Dawley rats; assay type: in vitro ADME, rat; settings: for metabolite detection by GC–MS: 50 μM parent PCB, 2 h, 37 °C; for relative level of dihydroxylated metabolite: all rat liver microsomal preparations except PB-pretreated rats, GC-μECD
[2] = Racemization of OH-PCB metabolites; assay type: physicochemical; settings: CD column, GC-μECD; 300 °C for 2 h; methylated derivatives
[3] = system: liver microsomes from rats, dogs, guinea pigs, hamsters, monkeys and rabbits; assay type: in vitro ADME; settings: for formation of monohydroxylated metabolite, GC–MS: all microsomal preparations investigated; for status of metabolite in incubations with liver microsomes of different species: dogs, guinea pigs, hamsters, monkeys, rabbits, all incubations
[4] = system: liver microsomes from Cynomolgus monkeys (male); assay type: in vitro ADME; settings: monkey liver microsomes, compared with other liver microsomes
[5] = system: liver microsomes from golden Syrian hamsters (male); assay type: in vitro ADME; settings: male hamster liver microsomes; 50 μM parent PCB, 2 h, 37 °C
[6] = system: liver microsomes from untreated beagle dogs (female); assay type: in vitro ADME; settings: female dog liver microsomes; 50 μM parent PCB, 2 h, 37 °C
[7] = microsomes from phenobarbital (PB) pretreated rats
[8] = microsomes from isoniazid (INH) pretreated rats

Row | SMILES | metabolite detection by GC–MS [1, 7] | EF after racemization [2] | formation of monohydroxylated metabolite, GC–MS [3] | status of metabolite in incubations with liver microsomes of different species [3] | relative level of dihydroxylated metabolite [1] | metabolite detection by GC–MS [1, 8] | further results
1 | Oc1cc(Cl)c(Cl)c(-c2c(Cl)ccc(Cl)c2Cl)c1Cl [5-OH-PCB 136, 2,2′,3,3′,6,6′-hexachlorobiphenyl-5-ol] |  |  |  |  |  |  | metabolite formed (recombinant rat CYP2B1): 4,5-dihydroxylated PCB 136 metabolite; metabolite formed (dog CYP2B11): 4,5-dihydroxylated PCB 136 metabolite
2 | Oc1ccc(Cl)c(-c2ccc(Cl)cc2Cl)c1Cl [OH-PCB 51, 2,2′,4,6′-tetrachlorobiphenyl-3′-ol] | major metabolite | 0.46 ± 0.01 | formed | major metabolite |  |  | extent of enantiomeric enrichment, comparison of congeners ([1]; incubations with rat liver microsomes): more pronounced enantiomeric enrichment compared to OH-PCB 102; rank order of EF values across species ([3]; EF = area E1/(area E1 + area E2), Chirasil-Dex column): monkey > rabbit ∼ guinea pig > hamster > rat > dog; extent of enantiomeric enrichment (EF) [4]: near racemic
3 | Oc1ccc(Cl)c(-c2cc(Cl)c(Cl)cc2Cl)c1Cl [OH-PCB 102, 2,2′,4,5,6′-pentachlorobiphenyl-3′-ol] | major metabolite | 0.49 ± 0.01 | detected | major metabolite |  |  | 
4 | Oc1cc(Cl)c(-c2ccc(Cl)cc2Cl)c(Cl)c1O [diOH-PCB 51, 3′,4′-dihydroxy-2,2′,4,6′-tetrachlorobiphenyl] | minor |  |  |  | minor metabolites | low levels | 
5 | Oc1cc(Cl)c(-c2cc(Cl)c(Cl)cc2Cl)c(Cl)c1O [diOH-PCB 102, 3′,4′-dihydroxy-2,2′,4,5,6′-pentachlorobiphenyl] | formation |  |  |  | minor metabolites | formed | metabolite detection by GC–MS ([1]; microsomes from corn oil (CO) treated rats): formed; metabolite detection by GC–MS [5]: formed; metabolite detection by GC–MS [6]: formed
